Reference: PMC5654968 (NPJ Systems Biology and Applications, 2017)
Like-named read-outs stand apart in the source and are kept apart here.

Assay type: in vivo, rat
Procedure: Distilled water and saline were administered as vehicle to rats in each control group. […] Plasma cytokine levels were measured by ELISA or multiplex immunoassay; common metabolites and lipid mediators were analyzed by GC-MS/MS and LC-MS/MS, respectively.
Pathway maps of lipid mediators were created by using CellDesigner 4.4 software (http://www.celldesigner.org). We evaluated the effects of the treatments on specific lipid mediators and categorized them according to COX, CYP and LOX pathways by Fisher’s exact test. The proinflammatory and anti-inflammatory indices were analyzed as described by Tam et al. with modification.[22]

[1] = PM/P (polyI:C+maoto vs polyI:C), 2h
[2] = PM/P (polyI:C+maoto vs polyI:C), 4h

| SMILES | log2FC of plasma level (M/C (maoto vs control), 2h) | log2FC of plasma level (M/C (maoto vs control), 4h) | log2FC of plasma level (P/C (polyI:C vs control), 2h) | log2FC of plasma level (P/C (polyI:C vs control), 4h) | log2FC of plasma level [1] | log2FC of plasma level [2] | log2FC of plasma level | log2FC of plasma level (first value of an incomplete line, time (2h or 4h) not assignable) |
| --- | --- | --- | --- | --- | --- | --- | --- | --- |
| CC/C=C\CC(O)/C=C/C=C\CCCCCCCC(=O)O (centres unmarked) [13-HOTrE] | 0.23 | -0.43 | 0.16 | 0.11 | -0.20 | -0.60 | – | – |
| CCC(O)/C=C/C=C\C/C=C\C/C=C\C/C=C\CCCC(=O)O (centres unmarked) [18-HEPE] | 0.08 | -0.59 | 0.02 | 0.07 | -0.16 | -0.77 | – | – |
| CCCCC[C@H](O)/C=C/[C@H]1OC(O)C[C@H](O)[C@@H]1C/C=C\CCCC(=O)O (some centres unmarked) [TXB2] | 1.36 | -0.87 | 0.70 | 0.28 | 0.92 | -0.46 | – | – |
| CC/C=C\CC(O)/C=C/C=C\C/C=C\C/C=C\C/C=C\CCC(=O)O (centres unmarked) [17-HDoHE] | 0.30 | -0.62 | -0.12 | 0.47 | 0.18 | -0.79 | – | – |
| CCCCC[C@H](O)/C=C/[C@H]1C(=O)C[C@H](O)[C@@H]1C/C=C\CCCC(=O)O [PGD2] | -0.26 | -0.58 | 0.28 | 0.92 | -0.11 | -1.25 | – | – |
| CCCCC/C=C\C/C=C\CC1OC1C/C=C\CCCC(=O)O (centres unmarked) [8,9-EET] | -0.23 | -0.33 | -0.32 | 0.06 | 0.27 | -0.66 | – | – |
| CC/C=C\C/C=C\C/C=C\C=C\C(O)C/C=C\C/C=C\CCC(=O)O (centres unmarked) [10-HDoHE] | 0.15 | -0.47 | 0.01 | 0.14 | -0.04 | -0.60 | – | – |
| CCCCC/C=C\C[C@H]1O[C@H]1C/C=C\C/C=C\CCCC(=O)O [11,12-EET] | -0.50 | -0.33 | -0.22 | 0.37 | -0.13 | -0.59 | – | – |
| CCCCC/C=C\C/C=C\C/C=C\CC(O)C1CCCC(=O)O1 (centres unmarked) [5,6-DHET-lactone] | – | – | – | – | – | – | -0.87 | 0.53 |
| CC(O)CCC/C=C\C/C=C\C/C=C\C/C=C\CCCC(=O)O (centres unmarked) [19-HETE] | 1.44 | 0.46 | 0.66 | -0.33 | 0.46 | 0.72 | – | – |
| O=C(O)CCC/C=C\C/C=C\C/C=C\C/C=C\CCCCCO [20-HETE] | 0.51 | -0.20 | -0.23 | 0.52 | 0.70 | 0.06 | – | – |
| CCCCCC(=O)/C=C/C=C\CCCCCCCC(=O)O [13-KODE] | 0.39 | -1.68 | -0.08 | 0.50 | -0.15 | -1.45 | – | – |
| CCCCC/C=C\CC(=O)/C=C/C=C\C/C=C\CCCC(=O)O [12-KETE] | 0.74 | -1.34 | -0.45 | 0.53 | 0.54 | -1.45 | – | – |
| CC/C=C\C/C=C\C=C\C(O)C/C=C\C/C=C\C/C=C\CCC(=O)O (centres unmarked) [13-HDoHE] | 0.03 | -0.44 | 0.01 | 0.18 | -0.06 | -0.62 | – | – |
| CCCCCC(=O)CC[C@@H]1[C@@H](C/C=C\CCCC(=O)O)[C@@H](O)C[C@H]1O [13,14-dihydro-15-keto-PGF2α] | 0.41 | -0.29 | 0.56 | -0.30 | 0.05 | 0.38 | – | – |
| CCCCC/C=C\C/C=C\C/C=C\C/C=C\CCCC(=O)O [AA, arachidonic acid] | 0.19 | -0.02 | 0.12 | 0.14 | -0.10 | -0.04 | – | – |

| SMILES | log2FC of plasma level (M/C (maoto vs control), 2h) | log2FC of plasma level (M/C (maoto vs control), 4h) | log2FC of plasma level (P/C (polyI:C vs control), 2h) | log2FC of plasma level (P/C (polyI:C vs control), 4h) | log2FC of plasma level [1] | log2FC of plasma level [2] | log2FC of plasma level | log2FC of plasma level (first value of an incomplete line, time (2h or 4h) not assignable) |
| --- | --- | --- | --- | --- | --- | --- | --- | --- |
| CCCCCC(=O)/C=C/C=C\CCCCCCCCCC(=O)O [15-KEDE] | 0.13 | -0.62 | -0.26 | 0.83 | 0.21 | -1.15 | – | – |
| CCCCC/C=C\C/C=C\C/C=C\CC1OC1CCCC(=O)O (centres unmarked) [5,6-EET] | -0.22 | -0.49 | -0.26 | 0.11 | 0.12 | -0.56 | – | – |
| CC/C=C\C/C=C\C/C=C\C/C=C\C/C=C\C/C=C\CCC(=O)O [DHA, docosahexaenoic acid] | 0.46 | -0.10 | 0.22 | 0.09 | 0.05 | 0.03 | – | – |
| CCCCC/C=C\C=C\C(O)CCCCCCCC(=O)O (centres unmarked) [9-HODE] | -0.05 | -0.53 | -0.02 | 0.50 | -0.13 | -0.97 | – | – |
| CC/C=C\C/C=C\C/C=C\C/C=C\CC(O)/C=C/C=C\CCC(=O)O (centres unmarked) [8-HDoHE] | 0.09 | -0.20 | -0.07 | 0.23 | -0.15 | -0.44 | – | – |
| CCCCC[C@H](O)/C=C/[C@@H]1[C@@H](C/C=C\CCCC(=O)O)[C@@H](O)C[C@H]1O [PGF2α] | 0.30 | -0.20 | 0.24 | -0.04 | 0.14 | -0.13 | – | – |
| CCCCCC=CCC=CCC=CC=CC(=O)CCCC(=O)O [5-KETE] | -0.29 | -0.45 | -0.18 | 0.36 | -0.02 | -0.67 | – | – |
| CCCCCC1OC1C/C=C\C/C=C\C/C=C\CCCC(=O)O (centres unmarked) [14,15-EET] | -0.23 | -0.59 | -0.40 | 0.01 | 0.02 | -0.47 | – | – |
| CCCCC/C=C\C[C@@H]1[C@H](/C=C/C(O)CCCC(=O)O)[C@@H](O)C[C@H]1O (stereo partly drawn) [5-iPF2α-VI] | -0.16 | -0.25 | -0.73 | 0.38 | 0.75 | -0.41 | – | – |
| CCC(O)/C=C/C=C\C/C=C\C/C=C\C/C=C\C/C=C\CCC(=O)O (centres unmarked) [20-HDoHE] | -0.10 | -0.54 | -0.13 | 0.44 | 0.06 | -0.71 | – | – |
| CCC(O)CC/C=C\C/C=C\C/C=C\C/C=C\CCCC(=O)O (centres unmarked) [18-HETE] | 0.16 | -0.08 | 0.25 | -0.05 | -0.26 | -0.07 | – | – |
| CC/C=C\C/C=C\C/C=C\C/C=C\C/C=C\C=C\C(O)CCC(=O)O (centres unmarked) [4-HDoHE] | 0.12 | -0.59 | -0.04 | 0.33 | 0.03 | -0.79 | – | – |
| CCCCCC(O)/C=C/C=C\CCCCCCCCCC(=O)O (centres unmarked) [15-HEDE] | 0.33 | -0.76 | -0.05 | 0.71 | 0.14 | -1.18 | – | – |
| CCCCC/C=C/C=C/C(=O)CCCCCCCC(=O)O [9-KODE] | -0.09 | -0.95 | -0.17 | 0.97 | -0.03 | -1.16 | – | – |
| CCCCC/C=C\C\C=C/C=C/C=C/[C@@H](SCC(NC(C)=O)C(=O)O)[C@@H](O)CCCC(=O)O (some centres unmarked) [N-acetyl-LTE4] | -1.85 | -1.41 | 2.21 | 1.28 | -2.45 | -0.96 | – | – |
| CC/C=C\CC(O)C(O)C/C=C\C/C=C\C/C=C\CCCC(=O)O (centres unmarked) [14,15-DiHETE] | 0.41 | -0.20 | 0.14 | 0.00 | -0.13 | -0.17 | – | – |
